“And” between values parts separate entries of the source, which are not always exact repeats. Equal values may be shown once.
What was measured:
PPARα = biological target: T1, PPARα (Homo sapiens, UniProt Q07869); experiment: AlphaScreen coactivator (SRC-1) recruitment assay on PPARα; format: biochemical; details: AlphaScreen SRC-1 recruitment; compounds at 50 µM (footnote); fenofibrate = 100%
T1 construct: 20 nM PPARα LBD GST fused (Thermo Scientific); purchased Thermo Scientific
T1 sequence (Q07869 239-466 limits assumed): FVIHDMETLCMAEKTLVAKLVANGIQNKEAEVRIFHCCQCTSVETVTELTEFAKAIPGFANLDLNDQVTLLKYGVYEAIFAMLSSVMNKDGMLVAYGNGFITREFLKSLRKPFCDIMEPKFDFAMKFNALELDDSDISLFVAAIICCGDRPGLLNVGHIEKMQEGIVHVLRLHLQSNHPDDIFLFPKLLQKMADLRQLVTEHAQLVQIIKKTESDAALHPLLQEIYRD
Experimental: Compounds’ ability to mediate cofactor recruitment was evaluated by employing AlphaScreen GST Detection Kit (PerkinElmer). Particularly, FXR agonism was evaluated employing 10 nM FXR-LBD GST-fused (Thermo Scientific) and 30 nM of biotinylated SRC1 peptide ([…]) in the presence of 20 μg/mL donor and acceptor beads and in buffer containing 50 mM Tris-HCl (pH7.4), 20 mM KCl, 1 mM DTT, and 0.1% BSA. For PPARα assay, a buffer containing 50 mM MOPS, 50 mM NaF, 0.05 mM CHAPS, and 0.05% BSA (pH = 7.4) was used, and 20 nM PPARα LBD GST fused (Thermo Scientific) and 60 nM of biotinylated SRC1 peptide were employed. Both acceptor and donor beads were added to reach 20 μg/mL final concentration. Incubations were performed in a final volume of 25 μL employing 384 wells Optiplate and Alpha signal was measured with Envision 2,105 (Perkin Elmer) multimode plate reader. […]

GPBAR1 = biological target: T2, GPBAR1 (Homo sapiens, UniProt Q8TDU6); experiment: GPBAR1 transactivation (CRE-luciferase reporter) assay in HEK-293T cells; format: cell-based; details: for EC50: transactivation assay, HEK-293T cells; for GPBAR1 efficacy (% vs. TLCA) / Emax: transactivation on HEK-293T cells, TLCA 10 μM = 100%; for Emax: 18 h, read-out: GPBAR1 efficacy (% vs. TLCA)
T2 construct: expressed in transfected cells; host or cells: HEK-293T
T2 sequence (Q8TDU6 1-330): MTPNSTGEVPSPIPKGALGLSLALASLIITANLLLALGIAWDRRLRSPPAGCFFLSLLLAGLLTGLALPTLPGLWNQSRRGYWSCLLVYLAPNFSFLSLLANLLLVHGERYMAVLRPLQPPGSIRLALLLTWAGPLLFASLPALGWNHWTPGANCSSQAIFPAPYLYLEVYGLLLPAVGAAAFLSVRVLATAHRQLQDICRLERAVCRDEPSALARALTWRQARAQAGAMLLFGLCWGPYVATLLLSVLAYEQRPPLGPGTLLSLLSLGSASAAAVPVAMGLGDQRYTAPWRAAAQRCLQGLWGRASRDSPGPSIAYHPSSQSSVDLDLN
Experimental: (§1) HepG2 and HEK-293T cells were cultured at 37 °C in minimal essential medium (MEM) and Dulbecco’s Modified Eagle Medium (DMEM) respectively, supplemented with 10% fetal bovine serum, 1% L-glutamine, 100 U/mL penicillin, and 100 μg/mL streptomycin. To investigate FXR-mediated transactivation, the HepG2 cells were transfected with 200 ng of the reporter vector p (hsp27)TK-Luc containing the FXR response element IR1 cloned from the promoter of heat shock protein 27 (hsp27), plus 100 ng pSG5-FXR, 100 ng pSG5-RXR, and 100 ng pGL4.70 Renilla. To evaluate GPBAR1 mediated transactivation, HEK-293T cells were transfected with 200 ng of human pGL4.29 (Promega), a reporter vector containing a cAMP response element (CRE) that drives the transcription of the luciferase reporter gene luc2P, with 100 ng of pCMVSPORT6-human GPBAR1, and with 100 ng of pGL4.70. At 24 h post-transfection, cells were stimulated 18 h with 10 μM TLCA (taurolithocholic acid a GPBAR1 agonist) or CDCA (FXR agonist) and compounds. To calculate the EC50 on FXR and GPBAR1, dose-response curves were performed in HEK-293T cells transfected as described above and then treated with increasing concentrations of compounds (from 0.1 to 50 µM). After treatments, cells were lysed in 100 μL of lysis buffer (25 mM Tris-phosphate, pH 7.8; 2 mM DTT; 10% glycerol; 1% Triton X-100), and 10 μL of cellular lysate was assayed for luciferase activity using the Firfly &Renilla Luciferase assay kit (Biotium). Luminescence was measured using Glomax 20/20 luminometer (Promega). Luciferase activities were assayed and normalized with Renilla activities.

FXR [1] = biological target: T3, FXR (Homo sapiens, UniProt Q96RI1); experiment: FXR transactivation (luciferase reporter) assay in HepG2 cells; format: cell-based; details: for EC50: HepG2 cells
T3 construct: expressed in transfected cells; host or cells: HepG2 (the text says EC50 dose-response curves were run in HEK-293T)
T3 sequence (Q96RI1 1-486): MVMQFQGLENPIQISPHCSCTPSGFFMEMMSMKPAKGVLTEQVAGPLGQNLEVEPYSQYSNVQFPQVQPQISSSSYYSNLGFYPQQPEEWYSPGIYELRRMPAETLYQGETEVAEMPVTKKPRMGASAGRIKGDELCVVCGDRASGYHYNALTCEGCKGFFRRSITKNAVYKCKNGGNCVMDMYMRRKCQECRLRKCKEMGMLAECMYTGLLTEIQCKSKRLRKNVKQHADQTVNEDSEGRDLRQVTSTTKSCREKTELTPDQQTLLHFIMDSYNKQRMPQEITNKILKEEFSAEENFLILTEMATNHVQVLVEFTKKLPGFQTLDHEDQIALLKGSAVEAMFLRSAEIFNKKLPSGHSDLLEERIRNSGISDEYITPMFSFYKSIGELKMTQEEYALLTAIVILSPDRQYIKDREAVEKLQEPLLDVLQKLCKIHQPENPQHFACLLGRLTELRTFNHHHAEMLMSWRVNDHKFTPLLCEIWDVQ
T3 sequence (P19793 1-462 partner): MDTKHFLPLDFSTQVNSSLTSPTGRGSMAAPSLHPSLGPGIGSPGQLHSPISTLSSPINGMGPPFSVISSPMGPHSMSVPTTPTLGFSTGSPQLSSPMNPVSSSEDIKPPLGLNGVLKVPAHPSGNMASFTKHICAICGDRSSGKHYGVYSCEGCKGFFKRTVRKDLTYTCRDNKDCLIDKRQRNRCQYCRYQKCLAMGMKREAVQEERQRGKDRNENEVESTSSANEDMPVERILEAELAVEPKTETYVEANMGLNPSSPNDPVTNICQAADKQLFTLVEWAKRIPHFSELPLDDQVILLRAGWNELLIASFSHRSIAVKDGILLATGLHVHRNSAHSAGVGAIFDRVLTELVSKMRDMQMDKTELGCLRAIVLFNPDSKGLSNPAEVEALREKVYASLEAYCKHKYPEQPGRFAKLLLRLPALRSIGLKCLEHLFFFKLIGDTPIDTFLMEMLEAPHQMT
Experimental: as §1

FXR [2] = biological target: T4, FXR (Homo sapiens, UniProt Q96RI1); experiment: AlphaScreen coactivator (SRC-1) recruitment assay on FXR; format: biochemical; details: for FXR efficacy (% vs. CDCA): AlphaScreen SRC-1 recruitment, compounds at 10 μM, CDCA = 100%
T4 sequence (Q96RI1 262-486 limits assumed): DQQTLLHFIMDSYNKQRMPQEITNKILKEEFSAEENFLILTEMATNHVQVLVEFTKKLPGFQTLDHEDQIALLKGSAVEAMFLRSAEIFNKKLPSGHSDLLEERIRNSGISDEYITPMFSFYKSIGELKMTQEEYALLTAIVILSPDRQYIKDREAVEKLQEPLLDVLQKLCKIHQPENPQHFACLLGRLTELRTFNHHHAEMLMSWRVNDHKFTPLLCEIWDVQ
Experimental: Compounds’ ability to mediate cofactor recruitment was evaluated by employing AlphaScreen GST Detection Kit (PerkinElmer). Particularly, FXR agonism was evaluated employing 10 nM FXR-LBD GST-fused (Thermo Scientific) and 30 nM of biotinylated SRC1 peptide ([…]) in the presence of 20 μg/mL donor and acceptor beads and in buffer containing 50 mM Tris-HCl (pH7.4), 20 mM KCl, 1 mM DTT, and 0.1% BSA. For PPARα assay, a buffer containing 50 mM MOPS, 50 mM NaF, 0.05 mM CHAPS, and 0.05% BSA (pH = 7.4) was used, and 20 nM PPARα LBD GST fused (Thermo Scientific) and 60 nM of biotinylated SRC1 peptide were employed. Both acceptor and donor beads were added to reach 20 μg/mL final concentration. Incubations were performed in a final volume of 25 μL employing 384 wells Optiplate and Alpha signal was measured with Envision 2,105 (Perkin Elmer) multimode plate reader. For efficacy, compounds were tested at 10 μM for FXR and 50 μM for PPARα.

| FXR efficacy vs. CDCA (transactivation) (FXR [1]) | SMILES | PPARα efficacy (% vs. fenofibrate) (PPARα) | EC50 (GPBAR1) | GPBAR1 efficacy (% vs. TLCA) (GPBAR1) | EC50 (FXR [1]) | Emax (GPBAR1) | FXR efficacy (% vs. CDCA) (FXR [2]) | EC50 (FXR [2]; AlphaScreen coactivator recruitment, FXR with SRC-1) |
| --- | --- | --- | --- | --- | --- | --- | --- | --- |
| 457% | CCC1C(O)C2C3CCC(C(C)CC(=O)O)C3(C)CCC2C2(C)CCC(O)CC12 (stereo not drawn) [BAR505, reference compound] | 40% | 3.2 ± 1.1 µM | 103.6% | 1.9 ± 0.14 µM | – | – | – |
| – | CC[C@@H]1C2C[C@H](OC(=O)C(C)(C)Oc3ccc(Cl)cc3)CC[C@]2(C)C2CC[C@@]3(C)C(CC[C@@H]3[C@H](C)CCO)C2[C@@H]1O (stereo partly drawn) [Compound 2] | – | – | – | – | 46 ± 16% | – | – |
| – | CC[C@@H]1C2C[C@H](OC(=O)C(C)(C)Oc3ccc(Cl)cc3)CC[C@]2(C)C2CC[C@@]3(C)C(CC[C@@H]3[C@H](C)CCOC(=O)C(C)(C)Oc3ccc(Cl)cc3)C2[C@@H]1O (stereo partly drawn) [Compound 3] | 27 ± 10% | 1.8 ± 0.35 µM | 101.0 ± 0.4% | 25 ± 0.01 µM | 101% | 48% and 48.0 ± 5.5% | 17.9 ± 2.6 µM |
| – | CC[C@@H]1C2C[C@H](O)CC[C@]2(C)C2CC[C@@]3(C)C(CC[C@@H]3[C@H](C)CCOC(=O)C(C)(C)Oc3ccc(C(=O)c4ccc(Cl)cc4)cc3)C2[C@@H]1O (stereo partly drawn) [Compound 4] | 13 ± 3% | – | – | – | 41 ± 3% | 14.0 ± 1.8% | – |
| – | CC[C@@H]1C2C[C@H](OC(=O)C(C)(C)Oc3ccc(C(=O)c4ccc(Cl)cc4)cc3)CC[C@]2(C)C2CC[C@@]3(C)C(CC[C@@H]3[C@H](C)CCO)C2[C@@H]1O (stereo partly drawn) [Compound 5] | 6.6 ± 1.9% | – | – | – | 40 ± 0.7% | – | – |
| – | CC[C@@H]1C2C[C@H](OC(=O)C(C)(C)Oc3ccc(C(=O)c4ccc(Cl)cc4)cc3)CC[C@]2(C)C2CC[C@@]3(C)C(CC[C@@H]3[C@H](C)CCOC(=O)C(C)(C)Oc3ccc(C(=O)c4ccc(Cl)cc4)cc3)C2[C@@H]1O (stereo partly drawn) [Compound 6] | 1.7 ± 0.5% | – | – | – | 30 ± 17% | – | – |
| – | CC[C@@H]1C2C[C@H](O)CC[C@]2(C)C2CC[C@@]3(C)C(CC[C@@H]3[C@H](C)CCOC(=O)C(C)(C)CCCOc3cc(C)ccc3C)C2[C@@H]1O (stereo partly drawn) [Compound 7] | 22 ± 18% | – | – | – | 14 ± 1.3% | 4.1 ± 0.6% | – |
| – | CC[C@@H]1C2C[C@H](OC(=O)C(C)(C)CCCOc3cc(C)ccc3C)CC[C@]2(C)C2CC[C@@]3(C)C(CC[C@@H]3[C@H](C)CCO)C2[C@@H]1O (stereo partly drawn) [Compound 8] | 5.3 ± 0.8% | – | – | – | 29.4 ± 5.1% | – | – |
| – | CC[C@@H]1C2C[C@H](OC(=O)C(C)(C)CCCOc3cc(C)ccc3C)CC[C@]2(C)C2CC[C@@]3(C)C(CC[C@@H]3[C@H](C)CCOC(=O)C(C)(C)CCCOc3cc(C)ccc3C)C2[C@@H]1O (stereo partly drawn) [Compound 9] | – | – | – | – | 28.5 ± 0.4% | 5.1 ± 1.9% | – |
